Laboratory results taken from patent publication US20240182531A1, “KV1.3 Blockers” (priority 2021, published 2024).
Where a SMILES comes first, the peptide text is derived from it. Bridges are numbered along the chain shown (N, C = ends). [ ]: non-standard residue; d: D form. Nle = CCCC[C@H](N)C(=O)O

Columns and labels:
human Kv1.1 = target: T1, human Kv1.1 (Homo sapiens, UniProt Q09470); assay: cell-based; details: ratio of patch clamp IC50 values
T1 construct: expressed in transfected cells; host or cells: CHO

human Kv1.6 = target: T2, human Kv1.6 (Homo sapiens, UniProt P17658); assay: cell-based; details: ratio of patch clamp IC50 values
T2 construct: expressed in transfected cells; host or cells: CHO

Rat whole blood = Rat whole blood (Rattus norvegicus, UniProt P15384); type: cell-based; details: IL-17A release, thapsigargin, 24 Hr, at least 2 replicates
human Kv1.2 = target: T3, human Kv1.2 (Homo sapiens, UniProt P16389); assay: cell-based; details: ratio of patch clamp IC50 values
T3 construct: expressed in transfected cells; host or cells: CHO
T3 sequence (P16389 whole entry): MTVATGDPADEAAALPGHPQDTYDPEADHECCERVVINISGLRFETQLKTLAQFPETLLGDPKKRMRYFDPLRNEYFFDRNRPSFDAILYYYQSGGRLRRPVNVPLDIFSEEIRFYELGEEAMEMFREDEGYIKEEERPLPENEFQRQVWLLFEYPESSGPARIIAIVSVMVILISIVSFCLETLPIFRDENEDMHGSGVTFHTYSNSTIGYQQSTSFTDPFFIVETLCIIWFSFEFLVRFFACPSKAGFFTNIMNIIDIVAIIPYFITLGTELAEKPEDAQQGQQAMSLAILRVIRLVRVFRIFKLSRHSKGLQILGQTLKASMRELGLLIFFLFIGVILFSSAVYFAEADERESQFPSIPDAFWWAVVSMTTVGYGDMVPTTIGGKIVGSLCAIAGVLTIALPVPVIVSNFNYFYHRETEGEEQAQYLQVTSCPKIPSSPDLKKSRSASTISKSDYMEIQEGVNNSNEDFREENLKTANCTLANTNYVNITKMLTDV

T1 sequence (Q09470 whole entry): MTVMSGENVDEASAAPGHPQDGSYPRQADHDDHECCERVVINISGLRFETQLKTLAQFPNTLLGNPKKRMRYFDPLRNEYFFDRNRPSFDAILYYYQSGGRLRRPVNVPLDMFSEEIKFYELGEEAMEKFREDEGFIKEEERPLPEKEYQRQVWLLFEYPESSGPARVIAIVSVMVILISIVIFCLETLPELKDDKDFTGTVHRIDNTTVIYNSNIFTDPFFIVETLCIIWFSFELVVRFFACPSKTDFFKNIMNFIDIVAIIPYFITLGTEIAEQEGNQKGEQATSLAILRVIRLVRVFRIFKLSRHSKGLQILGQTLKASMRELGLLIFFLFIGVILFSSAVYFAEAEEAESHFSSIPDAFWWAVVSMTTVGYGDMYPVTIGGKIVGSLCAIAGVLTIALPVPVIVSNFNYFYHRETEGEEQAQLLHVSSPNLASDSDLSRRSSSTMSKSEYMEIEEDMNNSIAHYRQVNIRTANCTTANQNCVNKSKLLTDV
Sequence of Rat whole blood (P15384 whole entry): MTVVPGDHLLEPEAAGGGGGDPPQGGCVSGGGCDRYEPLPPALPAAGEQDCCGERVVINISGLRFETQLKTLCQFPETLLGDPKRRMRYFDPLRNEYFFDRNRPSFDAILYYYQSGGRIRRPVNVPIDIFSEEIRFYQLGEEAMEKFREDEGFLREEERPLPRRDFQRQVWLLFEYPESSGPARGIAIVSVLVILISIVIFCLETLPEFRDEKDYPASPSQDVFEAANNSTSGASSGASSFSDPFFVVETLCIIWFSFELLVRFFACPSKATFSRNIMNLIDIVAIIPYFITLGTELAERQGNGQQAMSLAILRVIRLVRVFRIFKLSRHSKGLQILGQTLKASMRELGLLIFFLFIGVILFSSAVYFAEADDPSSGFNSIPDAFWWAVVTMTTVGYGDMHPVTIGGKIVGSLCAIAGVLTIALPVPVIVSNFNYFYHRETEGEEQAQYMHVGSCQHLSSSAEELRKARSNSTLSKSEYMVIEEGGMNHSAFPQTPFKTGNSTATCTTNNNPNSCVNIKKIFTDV
T2 sequence (P17658 whole entry): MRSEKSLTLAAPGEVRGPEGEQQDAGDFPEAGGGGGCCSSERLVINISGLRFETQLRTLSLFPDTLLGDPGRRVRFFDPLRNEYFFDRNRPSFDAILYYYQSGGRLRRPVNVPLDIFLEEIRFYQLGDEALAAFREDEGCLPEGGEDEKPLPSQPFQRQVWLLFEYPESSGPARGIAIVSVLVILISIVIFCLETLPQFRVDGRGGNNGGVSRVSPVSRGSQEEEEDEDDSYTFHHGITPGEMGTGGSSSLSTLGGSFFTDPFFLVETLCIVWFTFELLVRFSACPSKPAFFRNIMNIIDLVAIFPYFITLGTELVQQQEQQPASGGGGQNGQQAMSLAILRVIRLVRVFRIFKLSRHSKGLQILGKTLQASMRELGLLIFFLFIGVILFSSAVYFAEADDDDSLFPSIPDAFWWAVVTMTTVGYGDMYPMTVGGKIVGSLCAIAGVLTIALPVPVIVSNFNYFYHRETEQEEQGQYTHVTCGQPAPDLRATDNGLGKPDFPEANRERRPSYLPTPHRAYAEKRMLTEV

| Structure (SMILES) | Selectivity ratio Kv1.1/Kv1.3 (human Kv1.1) | Selectivity ratio Kv1.6/Kv1.3 (human Kv1.6) | IC50 (Rat whole blood) | Selectivity ratio Kv1.2/Kv1.3 (human Kv1.2) |
| --- | --- | --- | --- | --- |
| CCCC[C@@H]1NC(=O)[C@@H]2CSSC[C@H](NC(=O)[C@H](CCCNC(=N)N)NC(=O)[C@H](CCCC)NC(=O)[C@H](CC(=O)O)NC(=O)[C@H](CCCC)NC(=O)[C@@H](N)CC(N)=O)C(=O)N[C@@H](CO)C(=O)N[C@@H](C)C(=O)N[C@@H](CO)C(=O)N[C@@H](C(C)C)C(=O)N[C@@H](CCC(=O)O)C(=O)N[C@H]3CSSC[C@H](NC(=O)[C@H](CCCCN)NC(=O)[C@H](CCCCN)NC(=O)[C@H](CC(N)=O)NC1=O)C(=O)N[C@@H](CCCCN)C(=O)N[C@H](C(=O)N[C@@H](Cc1ccc(O)cc1)C(=O)N1CCC[C@H]1C(=O)N[C@@H](CCCNC(=N)N)C(N)=O)CSSC[C@H](NC(=O)[C@H](CCCCN)NC(=O)[C@H](CCCCN)NC(=O)[C@H](CCCCN)NC3=O)C(=O)N[C@@H](CC(C)C)C(=O)N[C@@H](CCCCN)C(=O)N[C@@H](C)C(=O)N[C@@H]([C@@H](C)CC)C(=O)NCC(=O)N[C@@H](CO)C(=O)N[C@@H]([C@@H](C)CC)C(=O)N[C@@H](Cc1ccccc1)C(=O)NCC(=O)N[C@@H](CCCCN)C(=O)N2 [compound 49] (H-N[Nle]D[Nle]RCSASVECKKKCLKAIGSIFGKC[Nle]NKKCKCYPR-NH2; disulfide 6-27, 12-32, 16-34) | >4000 | >4000 | 1.4 nM | 343 |
| CCCC[C@H](NC(=O)[C@H](CC(=O)O)NC(=O)[C@H](CCCC)NC(=O)[C@@H](N)CO)C(=O)N[C@@H](CCCNC(=N)N)C(=O)N[C@H]1CSSC[C@@H]2NC(=O)[C@H](CCCCN)NC(=O)CNC(=O)[C@H](Cc3ccccc3)NC(=O)[C@H]([C@@H](C)CC)NC(=O)[C@H](CO)NC(=O)CNC(=O)[C@H]([C@@H](C)CC)NC(=O)[C@H](C)NC(=O)[C@H](CCCCN)NC(=O)[C@H](CC(C)C)NC(=O)[C@@H]3CSSC[C@@H](C(=O)N[C@@H](Cc4ccc(O)cc4)C(=O)N4CCC[C@H]4C(=O)N[C@@H](CCCNC(=N)N)C(N)=O)NC(=O)[C@H](CCCCN)NC(=O)[C@H](CSSC[C@H](NC(=O)[C@H](CCC(=O)O)NC(=O)[C@H](C(C)C)NC(=O)[C@H](CO)NC(=O)[C@H](C)NC(=O)[C@H](CO)NC1=O)C(=O)NCC(=O)N[C@@H](CCC(N)=O)C(=O)N[C@@H](CCCCN)C(=O)N3)NC(=O)[C@H](CCCCN)NC(=O)[C@H](CCCCN)NC(=O)[C@H](CC(N)=O)NC(=O)[C@H](CCSC)NC2=O [compound 71] (H-S[Nle]D[Nle]RCSASVECGQKCLKAIGSIFGKCMNKKCKCYPR-NH2; disulfide 6-27, 12-32, 16-34) | >27700 | >27700 | 0.3 nM | 3438 |
| CCCC[C@H](NC(=O)[C@@H](N)CO)C(=O)N[C@@H](CC(=O)O)C(=O)N[C@@H](CCC(=O)O)C(=O)N[C@@H](CCCNC(=N)N)C(=O)N[C@H]1CSSC[C@@H]2NC(=O)[C@H](CCCCN)NC(=O)CNC(=O)[C@H](Cc3ccccc3)NC(=O)[C@H]([C@@H](C)CC)NC(=O)[C@H](CO)NC(=O)CNC(=O)[C@H]([C@@H](C)CC)NC(=O)[C@H](C)NC(=O)[C@H](CCCCN)NC(=O)[C@H](CC(C)C)NC(=O)[C@@H]3CSSC[C@@H](C(=O)N[C@@H](Cc4ccc(O)cc4)C(=O)N4CCC[C@H]4C(=O)N[C@@H](CCCNC(=N)N)C(N)=O)NC(=O)[C@H](CCCCN)NC(=O)[C@H](CSSC[C@H](NC(=O)[C@H](CCC(=O)O)NC(=O)[C@H](C(C)C)NC(=O)[C@H](CO)NC(=O)[C@H](C)NC(=O)[C@H](CO)NC1=O)C(=O)N[C@@H](CCCCN)C(=O)N[C@@H](CCC(N)=O)C(=O)N[C@@H](CCCCN)C(=O)N3)NC(=O)[C@H](CCCCN)NC(=O)[C@H](CCCCN)NC(=O)[C@H](CC(N)=O)NC(=O)[C@H](CCSC)NC2=O [compound 76] (H-S[Nle]DERCSASVECKQKCLKAIGSIFGKCMNKKCKCYPR-NH2; disulfide 6-27, 12-32, 16-34) | >10600 | >10600 | 0.55 nM | 430 |
| CC[C@H](C)[C@@H]1NC(=O)[C@H](C)NC(=O)[C@H](CCCCN)NC(=O)[C@H](CC(C)C)NC(=O)[C@@H]2CSSC[C@@H](C(=O)N[C@@H](Cc3ccc(O)cc3)C(=O)N3CCC[C@H]3C(=O)N[C@@H](CCCNC(=N)N)C(N)=O)NC(=O)[C@H](CCCCN)NC(=O)[C@@H]3CSSC[C@H](NC(=O)[C@H](CCC(=O)O)NC(=O)[C@H](C(C)C)NC(=O)[C@H](CO)NC(=O)[C@H]([C@@H](C)CC)NC(=O)[C@H](CO)NC(=O)[C@@H](NC(=O)[C@H](CCCNC(=N)N)NC(=O)[C@H](CCSC)NC(=O)[C@H](CC(=O)O)NC(=O)[C@H](CCSC)NC(=O)[C@@H](N)CC(N)=O)CSSC[C@H](NC(=O)[C@H](CCCCN)NC(=O)CNC(=O)[C@H](Cc4ccccc4)NC(=O)[C@H]([C@@H](C)CC)NC(=O)[C@H](CO)NC(=O)CNC1=O)C(=O)N[C@@H](CCSC)C(=O)N[C@@H](CC(N)=O)C(=O)N[C@@H](CCCCN)C(=O)N[C@@H](CCCCN)C(=O)N3)C(=O)N[C@@H](CCCCN)C(=O)N[C@@H](CCC(N)=O)C(=O)N[C@@H](CCCCN)C(=O)N2 [compound 30] (H-NMDMRCSISVECKQKCLKAIGSIFGKCMNKKCKCYPR-NH2; disulfide 6-27, 12-32, 16-34) | >11800 | >11800 | 0.61 nM | 169 |
| CC[C@H](C)[C@@H]1NC(=O)[C@H](C)NC(=O)[C@H](CCCCN)NC(=O)[C@H](CC(C)C)NC(=O)[C@@H]2CSSC[C@@H](C(=O)N[C@@H](Cc3ccc(O)cc3)C(=O)N3CCC[C@H]3C(=O)N[C@@H](CCCNC(=N)N)C(N)=O)NC(=O)[C@H](CCCCN)NC(=O)[C@@H]3CSSC[C@H](NC(=O)[C@H](CCC(=O)O)NC(=O)[C@H](C(C)C)NC(=O)[C@H](CO)NC(=O)[C@H](C)NC(=O)[C@H](CO)NC(=O)[C@@H](NC(=O)[C@H](CCCNC(=N)N)NC(=O)[C@H](CCSC)NC(=O)[C@H](CC(=O)O)NC(=O)[C@H](CCSC)NC(=O)[C@@H](N)CC(N)=O)CSSC[C@H](NC(=O)[C@H](CCCCN)NC(=O)CNC(=O)[C@H](Cc4ccccc4)NC(=O)[C@H](CCCCN)NC(=O)[C@H](CO)NC(=O)CNC1=O)C(=O)N[C@@H](CCSC)C(=O)N[C@@H](CC(N)=O)C(=O)N[C@@H](CCCCN)C(=O)N[C@@H](CCCCN)C(=O)N3)C(=O)N[C@@H](CCCCN)C(=O)N[C@@H](CCC(N)=O)C(=O)N[C@@H](CCCCN)C(=O)N2 [compound 38] (H-NMDMRCSASVECKQKCLKAIGSKFGKCMNKKCKCYPR-NH2; disulfide 6-27, 12-32, 16-34) | >7100 | 490 | 2.1 nM | 237 |
| CC[C@H](C)[C@@H]1NC(=O)[C@H](C)NC(=O)[C@H](CCCCN)NC(=O)[C@H](CC(C)C)NC(=O)[C@@H]2CSSC[C@@H](C(=O)N[C@@H](Cc3ccc(O)cc3)C(=O)N3CCC[C@H]3C(=O)N[C@@H](CCCNC(=N)N)C(N)=O)NC(=O)[C@H](CCCCN)NC(=O)[C@@H]3CSSC[C@H](NC(=O)[C@H](CCC(=O)O)NC(=O)[C@H](CCCNC(=N)N)NC(=O)[C@H](CO)NC(=O)[C@H](C)NC(=O)[C@H](CO)NC(=O)[C@@H](NC(=O)[C@H](CCCNC(=N)N)NC(=O)[C@H](CCSC)NC(=O)[C@H](CC(=O)O)NC(=O)[C@H](CCSC)NC(=O)[C@@H](N)CC(N)=O)CSSC[C@H](NC(=O)[C@H](CCCCN)NC(=O)CNC(=O)[C@H](Cc4ccccc4)NC(=O)[C@H]([C@@H](C)CC)NC(=O)[C@H](CO)NC(=O)CNC1=O)C(=O)N[C@@H](CCSC)C(=O)N[C@@H](CC(N)=O)C(=O)N[C@@H](CCCCN)C(=O)N[C@@H](CCCCN)C(=O)N3)C(=O)N[C@@H](CCCCN)C(=O)N[C@@H](CCC(N)=O)C(=O)N[C@@H](CCCCN)C(=O)N2 [compound 31] (H-NMDMRCSASRECKQKCLKAIGSIFGKCMNKKCKCYPR-NH2; disulfide 6-27, 12-32, 16-34) | >25900 | 1778 | 0.68 nM | 94 |
| CC[C@H](C)[C@@H]1NC(=O)[C@H](C)NC(=O)[C@H](CCCCN)NC(=O)[C@H](CC(C)C)NC(=O)[C@@H]2CSSC[C@@H](C(=O)N[C@@H](Cc3ccc(O)cc3)C(=O)N3CCC[C@H]3C(=O)N[C@@H](CCCNC(=N)N)C(N)=O)NC(=O)[C@H](CCCCN)NC(=O)[C@@H]3CSSC[C@H](NC(=O)[C@H](CCC(=O)O)NC(=O)[C@H](C(C)C)NC(=O)[C@H](CO)NC(=O)[C@H](C)NC(=O)[C@H](CO)NC(=O)[C@@H](NC(=O)[C@H](CCCNC(=N)N)NC(=O)[C@H](CCSC)NC(=O)[C@H](CC(=O)O)NC(=O)[C@H](CCSC)NC(=O)[C@@H](N)CC(N)=O)CSSC[C@H](NC(=O)[C@H](CCCCN)NC(=O)CNC(=O)[C@H](Cc4ccccc4)NC(=O)[C@H]([C@@H](C)CC)NC(=O)[C@H](CO)NC(=O)CNC1=O)C(=O)N[C@@H](CCSC)C(=O)N[C@@H](CC(N)=O)C(=O)N[C@@H](CCCCN)C(=O)N[C@@H](CCCCN)C(=O)N3)C(=O)N[C@@H](CCCCN)C(=O)N[C@@H](CCC(=O)O)C(=O)N[C@@H](CCCCN)C(=O)N2 [compound 35] (H-NMDMRCSASVECKEKCLKAIGSIFGKCMNKKCKCYPR-NH2; disulfide 6-27, 12-32, 16-34) | >10800 | >10800 | 0.86 nM | 648 |
